How the values were obtained:
Format in all cases: functional
NCI-H322M = test: Cytotoxicity against Homo sapiens (human) NCI-H322M cells after 48 hr by sulforhodamine B assay
SF-539 = test: Cytotoxicity against Homo sapiens (human) SF539 cells after 48 hr by sulforhodamine B assay; details: SF-539, 48 h
SF-295 = test: Cytotoxicity against Homo sapiens (human) SF295 cells after 48 hr by sulforhodamine B assay; details: SF-295, 48 h
SK-MEL-28 = test: Cytotoxicity against Homo sapiens (human) SK-MEL-28 cells after 48 hr by sulforhodamine B assay; details: SK-MEL-28, 48 h
MOLT-4 = test: Cytotoxicity against Homo sapiens (human) MOLT4 cells after 48 hr by sulforhodamine B assay; details: MOLT-4, 48 h
SW-620 = test: Cytotoxicity against Homo sapiens (human) SW620 cells after 48 hr by sulforhodamine B assay; details: SW-620, 48 h
[1] = Cytotoxicity against Homo sapiens (human) […] cells after 48 hr by sulforhodamine B assay
786-0 = test: Cytotoxicity against Homo sapiens (human) 786-0 cells after 48 hr by sulforhodamine B assay; details: 786-0, 48 h
OVCAR-4 = test: Cytotoxicity against Homo sapiens (human) OVCAR4 cells after 48 hr by sulforhodamine B assay; details: OVCAR-4, 48 h
SR = test: Cytotoxicity against Homo sapiens (human) SR cells after 48 hr by sulforhodamine B assay
A549 = test: Cytotoxicity against Homo sapiens (human) A549 cells after 48 hr by sulforhodamine B assay; details: A549, 48 h
HOP-92 = test: Cytotoxicity against Homo sapiens (human) HOP92 cells after 48 hr by sulforhodamine B assay; details: HOP-92, 48 h
[2] = Cytotoxicity against Homo sapiens (human) NCI-ADR-RES cells after 48 hr by sulforhodamine B assay
HCT-15 = test: Cytotoxicity against Homo sapiens (human) HCT15 cells after 48 hr by sulforhodamine B assay; details: HCT-15, 48 h
KM12 = test: Cytotoxicity against Homo sapiens (human) KM12 cells after 48 hr by sulforhodamine B assay; details: KM12, 48 h
LOX IMVI = test: Cytotoxicity against Homo sapiens (human) LOXIMVI cells after 48 hr by sulforhodamine B assay
CAKI-1 = test: Cytotoxicity against Homo sapiens (human) Caki1 cells after 48 hr by sulforhodamine B assay; details: CAKI-1, 48 h
HCT-116 = test: Cytotoxicity against Homo sapiens (human) HCT116 cells after 48 hr by sulforhodamine B assay; details: HCT-116, 48 h
EKVX = test: Cytotoxicity against Homo sapiens (human) EKVX cells after 48 hr by sulforhodamine B assay
UACC-257 = test: Cytotoxicity against Homo sapiens (human) UACC257 cells after 48 hr by sulforhodamine B assay; details: UACC-257, 48 h
TK-10 = test: Cytotoxicity against Homo sapiens (human) TK10 cells after 48 hr by sulforhodamine B assay; details: TK-10, 48 h
HT-29 = test: Cytotoxicity against Homo sapiens (human) HT-29 cells after 48 hr by sulforhodamine B assay; details: HT-29, 48 h
SF-268 = test: Cytotoxicity against Homo sapiens (human) SF268 cells after 48 hr by sulforhodamine B assay; details: SF-268, 48 h
MDA-MB-435 = test: Cytotoxicity against Homo sapiens (human) MDA-MB-435 cells after 48 hr by sulforhodamine B assay; details: MDA-MB-435, 48 h
MCF7 = test: Cytotoxicity against Homo sapiens (human) MCF7 cells after 48 hr by sulforhodamine B assay; details: MCF7, 48 h
M14 = test: Cytotoxicity against Homo sapiens (human) M14 cells after 48 hr by sulforhodamine B assay; details: M14, 48 h
UACC-62 = test: Cytotoxicity against Homo sapiens (human) UACC62 cells after 48 hr by sulforhodamine B assay; details: UACC-62, 48 h
BT-549 = test: Cytotoxicity against Homo sapiens (human) BT549 cells after 48 hr by sulforhodamine B assay; details: BT-549, 48 h
PC-3 = test: Cytotoxicity against Homo sapiens (human) PC3 cells after 48 hr by sulforhodamine B assay; details: PC-3, 48 h
OVCAR-8 = test: Cytotoxicity against Homo sapiens (human) OVCAR8 cells after 48 hr by sulforhodamine B assay; details: OVCAR-8, 48 h
SNB-19 = test: Cytotoxicity against Homo sapiens (human) SNB19 cells after 48 hr by sulforhodamine B assay; details: SNB-19, 48 h

Molecule `O=C(c1ccc(O)cc1)n1nc(-c2c(Cl)cccc2Cl)sc1=S` has a GI50 (NCI-H322M) of 15.1 µM, an LC50 (NCI-H322M) of over 100 µM and a TGI (NCI-H322M; read-out: pTGI (converted)) of 66.1 µM. The GI50 (SF-539) was 14.8 µM, the LC50 (SF-539) was 58.9 µM and the TGI (SF-539; read-out: pTGI (converted)) was 29.5 µM. The GI50 (SF-295) was 5.13 µM, the LC50 (SF-295) was over 100 µM and the TGI (SF-295; read-out: pTGI (converted)) was 29.5 µM. It also gave a GI50 (SK-MEL-28) of 16.2 µM, an LC50 (concentration killing 50% of cells) (SK-MEL-28) of 87.1 µM and a TGI (SK-MEL-28; read-out: pTGI (converted)) of 37.2 µM. For the same molecule, the GI50 (MOLT-4) was 4.47 µM, the LC50 (MOLT-4) was over 100 µM and the TGI (MOLT-4; read-out: pTGI (converted)) was 27.5 µM. It also gave a GI50 (SW-620) of 12 µM, an LC50 (SW-620) of 87.1 µM and a TGI (SW-620; read-out: pTGI (converted)) of 31.6 µM. The GI50 [1] was 7.59 µM, the LC50 [1] was over 100 µM and the TGI ([1]; read-out: pTGI (converted)) was 60.3 µM. The GI50 (786-0) was 2.34 µM, the LC50 (786-0) was 53.7 µM and the TGI (786-0; read-out: pTGI (converted)) was 17 µM. For the same molecule, the GI50 (OVCAR-4) was 11.5 µM, the LC50 (OVCAR-4) was over 100 µM and the TGI (OVCAR-4; read-out: pTGI (converted)) was 77.6 µM. The GI50 (SR) was 1.51 µM, the LC50 (SR) was over 100 µM and the TGI (SR; read-out: pTGI) was over 100 µM. For the same molecule, the GI50 (A549) was 12.3 µM, the LC50 (A549) was over 100 µM and the TGI (A549; read-out: pTGI (converted)) was 58.9 µM. The GI50 (HOP-92) was 0.324 µM, the LC50 (HOP-92) was 43.7 µM and the TGI (HOP-92; read-out: pTGI (converted)) was 7.76 µM. The GI50 [2] was 10 µM, the LC50 [2] was over 100 µM and the TGI ([2]; read-out: pTGI (converted)) was 49 µM. For the same molecule, the GI50 (HCT-15) was 6.46 µM, the LC50 (concentration killing 50% of cells) (HCT-15) was over 100 µM and the TGI (HCT-15; read-out: pTGI (converted)) was 32.4 µM. It also gave a GI50 (KM12) of 3.8 µM, an LC50 (KM12) of 41.7 µM and a TGI (KM12; read-out: pTGI (converted)) of 14.8 µM. The GI50 (LOX IMVI) was 10 µM, the LC50 (LOX IMVI) was 75.9 µM and the TGI (LOX IMVI; read-out: pTGI (converted)) was 27.5 µM. The GI50 (CAKI-1) was 6.03 µM, the LC50 (CAKI-1) was over 100 µM and the TGI (CAKI-1; read-out: pTGI (converted)) was 57.5 µM. For the same molecule, the GI50 (HCT-116) was 10.7 µM, the LC50 (HCT-116) was 52.5 µM and the TGI (HCT-116; read-out: pTGI (converted)) was 24 µM. For the same molecule, the GI50 (EKVX) was 5.01 µM, the LC50 (EKVX) was over 100 µM and the TGI (EKVX; read-out: pTGI (converted)) was 69.2 µM. For the same molecule, the GI50 (UACC-257) was 14.1 µM, the LC50 (UACC-257) was over 100 µM and the TGI (UACC-257; read-out: pTGI (converted)) was 41.7 µM. For the same molecule, the GI50 (TK-10) was 4.47 µM, the LC50 (TK-10) was over 100 µM and the TGI (TK-10; read-out: pTGI (converted)) was 42.7 µM. It also gave a GI50 (HT-29) of 8.32 µM, an LC50 (HT-29) of 53.7 µM and a TGI (HT-29; read-out: pTGI (converted)) of 22.9 µM. For the same molecule, the GI50 (SF-268) was 7.59 µM, the LC50 (SF-268) was over 100 µM and the TGI (SF-268; read-out: pTGI (converted)) was 34.7 µM. The GI50 (MDA-MB-435) was 3.72 µM, the LC50 (MDA-MB-435) was over 100 µM and the TGI (MDA-MB-435; read-out: pTGI (converted)) was 31.6 µM. The GI50 (MCF7) was 11.5 µM, the LC50 (MCF7) was 87.1 µM and the TGI (MCF7; read-out: pTGI (converted)) was 32.4 µM. It also gave a GI50 (M14) of 8.91 µM, an LC50 (M14) of 67.6 µM and a TGI (M14; read-out: pTGI (converted)) of 25.7 µM. It also gave a GI50 (UACC-62) of 9.55 µM, an LC50 (UACC-62) of 58.9 µM and a TGI (UACC-62; read-out: pTGI (converted)) of 24 µM. For the same molecule, the GI50 (BT-549) was 28.8 µM, the LC50 (BT-549) was over 100 µM and the TGI (BT-549; read-out: pTGI (converted)) was 60.3 µM. For the same molecule, the GI50 (PC-3) was 3.31 µM, the LC50 (PC-3) was over 100 µM and the TGI (PC-3; read-out: pTGI (converted)) was 30.2 µM. The GI50 (OVCAR-8) was 22.9 µM, the LC50 (OVCAR-8) was over 100 µM and the TGI (OVCAR-8; read-out: pTGI (converted)) was 72.4 µM. For the same molecule, the GI50 (SNB-19) was 15.1 µM, the LC50 (SNB-19) was over 100 µM and the TGI (SNB-19; read-out: pTGI (converted)) was 67.6 µM.

From ChEMBL document CHEMBL3046521, “Synthesis and antitumor activity of (4-hydroxyphenyl)[5-substituted alkyl/aryl)-2-thioxo-1,3,4-thiadiazol-3-yl]methanone and [(3,4-disubstituted)-1,3-thiazol-2ylidene]-4-hydroxybenzohydrazide” (2011)
